Assay results: PMC12514245, “Impaired migration and lung invasion of human melanoma by a novel small molecule targeting the transmembrane domain of death receptor p75^NTR” (EMBO Molecular Medicine, 2025)

System: A875 NT cells
Experiment: Wound healing cell motility assay, A875 NT
Assay type: cell-based, human
Conditions: for Wound area (Fold): A875 NT
Procedure: For wound healing assay, cells were grown until confluency and subjected to a wound across the cell mono-layer. Cells were then incubated with serum-free media either with DMSO or a small molecule (with or without 5 µM Q_VD_poH) and imaged at specific time-points. Cell migration is reflected as fold change in wound area over time.

Question: How did the “Wound area (Fold)” value (1uM, 0 h, n1) turn out when `Oc1ccc(-c2cncc(Nc3ccc(Br)c(Cl)c3)n2)cc1` [Div17E5] was run?
Answer: 1.026 Fold

Question: What about the “Wound area (Fold)” value (1uM, 0 h, n2) of the same molecule?
Answer: 0.960 Fold

Question: What about the “Wound area (Fold)” value (1uM, 0 h, n3) of the same molecule?
Answer: 1.014 Fold

Question: And the “Wound area (Fold)” value (1uM, 3 h, Mean)?
Answer: 0.953 Fold

Question: What about the “Wound area (Fold)” value (1uM, 3 h, n1) of the same molecule?
Answer: 0.950 Fold

Question: And the “Wound area (Fold)” value (1uM, 3 h, n2)?
Answer: 0.945 Fold

Question: And the “Wound area (Fold)” value (1uM, 3 h, n3)?
Answer: 0.963 Fold

Question: And the “Wound area (Fold)” value (1uM, 6 h, Mean)?
Answer: 0.896 Fold

Question: And the “Wound area (Fold)” value (1uM, 6 h, n1)?
Answer: 0.897 Fold

Question: And the “Wound area (Fold)” value (1uM, 6 h, n2)?
Answer: 0.884 Fold

Question: What about the “Wound area (Fold)” value (1uM, 6 h, n3) of the same molecule?
Answer: 0.907 Fold

Question: What about the “Wound area (Fold)” value (1uM, 9 h, Mean) of the same molecule?
Answer: 0.858 Fold

Question: What about the “Wound area (Fold)” value (1uM, 9 h, n1) of the same molecule?
Answer: 0.855 Fold

Question: What about the “Wound area (Fold)” value (1uM, 9 h, n2) of the same molecule?
Answer: 0.847 Fold

Question: And the “Wound area (Fold)” value (1uM, 9 h, n3)?
Answer: 0.872 Fold

Question: And the “Wound area (Fold)” value (1uM, 12 h, Mean)?
Answer: 0.818 Fold

Question: What about the “Wound area (Fold)” value (1uM, 12 h, n1) of the same molecule?
Answer: 0.819 Fold

Question: What about the “Wound area (Fold)” value (1uM, 12 h, n2) of the same molecule?
Answer: 0.796 Fold

Question: What about the “Wound area (Fold)” value (1uM, 12 h, n3) of the same molecule?
Answer: 0.839 Fold

Question: What about the “Wound area (Fold)” value (1uM, 15 h, Mean) of the same molecule?
Answer: 0.788 Fold

Question: What about the “Wound area (Fold)” value (1uM, 15 h, n1) of the same molecule?
Answer: 0.792 Fold

Question: And the “Wound area (Fold)” value (1uM, 15 h, n2)?
Answer: 0.758 Fold

Question: And the “Wound area (Fold)” value (1uM, 15 h, n3)?
Answer: 0.814 Fold

Question: What about the “Wound area (Fold)” value (1uM, 18 h, Mean) of the same molecule?
Answer: 0.765 Fold

Question: What about the “Wound area (Fold)” value (1uM, 18 h, n1) of the same molecule?
Answer: 0.775 Fold

Question: And the “Wound area (Fold)” value (1uM, 18 h, n2)?
Answer: 0.730 Fold

Question: And the “Wound area (Fold)” value (1uM, 18 h, n3)?
Answer: 0.790 Fold

Question: What about the “Wound area (Fold)” value (1uM, 21 h, Mean) of the same molecule?
Answer: 0.730 Fold

Question: What about the “Wound area (Fold)” value (1uM, 21 h, n1) of the same molecule?
Answer: 0.735 Fold

Question: And the “Wound area (Fold)” value (1uM, 21 h, n2)?
Answer: 0.696 Fold

Question: What about the “Wound area (Fold)” value (1uM, 21 h, n3) of the same molecule?
Answer: 0.758 Fold

Question: What about the “Wound area (Fold)” value (1uM, 24 h, Mean) of the same molecule?
Answer: 0.705 Fold

Question: And the “Wound area (Fold)” value (1uM, 24 h, n1)?
Answer: 0.708 Fold

Question: What about the “Wound area (Fold)” value (1uM, 24 h, n2) of the same molecule?
Answer: 0.669 Fold

Question: And the “Wound area (Fold)” value (1uM, 24 h, n3)?
Answer: 0.737 Fold

Question: What about the “Wound area (Fold)” value (2uM, 0 h, Mean) of the same molecule?
Answer: 1.000 Fold

Question: What about the “Wound area (Fold)” value (2uM, 0 h, n1) of the same molecule?
Answer: 0.9445 Fold

Question: What about the “Wound area (Fold)” value (2uM, 0 h, n2) of the same molecule?
Answer: 1.024 Fold

Question: What about the “Wound area (Fold)” value (2uM, 0 h, n3) of the same molecule?
Answer: 1.031 Fold

Question: What about the “Wound area (Fold)” value (2uM, 3 h, Mean) of the same molecule?
Answer: 0.936 Fold

Question: And the “Wound area (Fold)” value (2uM, 3 h, n1)?
Answer: 0.9336 Fold

Question: What about the “Wound area (Fold)” value (2uM, 3 h, n2) of the same molecule?
Answer: 0.9313 Fold

Question: What about the “Wound area (Fold)” value (2uM, 3 h, n3) of the same molecule?
Answer: 0.9444 Fold

Question: What about the “Wound area (Fold)” value (2uM, 6 h, Mean) of the same molecule?
Answer: 0.874 Fold

Question: And the “Wound area (Fold)” value (2uM, 6 h, n1)?
Answer: 0.8802 Fold

Question: What about the “Wound area (Fold)” value (2uM, 6 h, n2) of the same molecule?
Answer: 0.851 Fold

Question: And the “Wound area (Fold)” value (2uM, 6 h, n3)?
Answer: 0.8894 Fold

Question: What about the “Wound area (Fold)” value (2uM, 9 h, Mean) of the same molecule?
Answer: 0.841 Fold

Question: And the “Wound area (Fold)” value (2uM, 9 h, n1)?
Answer: 0.8687 Fold

Question: What about the “Wound area (Fold)” value (2uM, 9 h, n2) of the same molecule?
Answer: 0.7852 Fold

Question: And the “Wound area (Fold)” value (2uM, 9 h, n3)?
Answer: 0.8693 Fold

Question: And the “Wound area (Fold)” value (2uM, 12 h, Mean)?
Answer: 0.798 Fold

Question: What about the “Wound area (Fold)” value (2uM, 12 h, n1) of the same molecule?
Answer: 0.822 Fold

Question: What about the “Wound area (Fold)” value (2uM, 12 h, n2) of the same molecule?
Answer: 0.7423 Fold

Question: And the “Wound area (Fold)” value (2uM, 12 h, n3)?
Answer: 0.8308 Fold

Question: What about the “Wound area (Fold)” value (2uM, 15 h, Mean) of the same molecule?
Answer: 0.764 Fold

Question: What about the “Wound area (Fold)” value (2uM, 15 h, n1) of the same molecule?
Answer: 0.7994 Fold

Question: What about the “Wound area (Fold)” value (2uM, 15 h, n2) of the same molecule?
Answer: 0.707 Fold

Question: And the “Wound area (Fold)” value (2uM, 15 h, n3)?
Answer: 0.7869 Fold

Question: And the “Wound area (Fold)” value (2uM, 18 h, Mean)?
Answer: 0.723 Fold

Question: What about the “Wound area (Fold)” value (2uM, 18 h, n1) of the same molecule?
Answer: 0.7549 Fold

Question: And the “Wound area (Fold)” value (2uM, 18 h, n2)?
Answer: 0.6745 Fold

Question: And the “Wound area (Fold)” value (2uM, 18 h, n3)?
Answer: 0.7404 Fold

Question: What about the “Wound area (Fold)” value (2uM, 21 h, Mean) of the same molecule?
Answer: 0.674 Fold

Question: And the “Wound area (Fold)” value (2uM, 21 h, n1)?
Answer: 0.6977 Fold

Question: And the “Wound area (Fold)” value (2uM, 21 h, n2)?
Answer: 0.6158 Fold

Question: What about the “Wound area (Fold)” value (2uM, 21 h, n3) of the same molecule?
Answer: 0.7086 Fold

Question: What about the “Wound area (Fold)” value (2uM, 24 h, Mean) of the same molecule?
Answer: 0.637 Fold

Question: What about the “Wound area (Fold)” value (2uM, 24 h, n1) of the same molecule?
Answer: 0.6671 Fold

Question: And the “Wound area (Fold)” value (2uM, 24 h, n2)?
Answer: 0.5815 Fold

Question: And the “Wound area (Fold)” value (2uM, 24 h, n3)?
Answer: 0.6623 Fold

Question: And the wound healing assay (low micromolar and submicromolar concentrations)?
Answer: totally inactive
